Test results reported in article PMC5493349, “Quaternary structure is an essential component that contributes to the sophisticated allosteric regulation mechanism in a key enzyme from Mycobacterium tuberculosis” (PLoS ONE, 2017).

What was measured:
[1] = target: MtuDAH7PSG232P (Mycobacterium tuberculosis, UniProt O53512, G232P); type: biochemical
[2] = target: T1, wild-type MtuDAH7PS (Mycobacterium tuberculosis, UniProt O53512); conditions: cited from earlier work
[3] = target: MtuDAH7PSF227D (Mycobacterium tuberculosis, UniProt O53512, F227D); type: biochemical
[4] = target: T1, wild-type MtuDAH7PS; type: biochemical

Row | Structure (SMILES) | inhibition of dimeric variant MtuDAH7PSG232P [1] | inhibition of wild-type enzyme by single amino acid, unsaturated E4P [2] | inhibition of dimeric variant MtuDAH7PSF227D [3] | inhibition of wild-type enzyme [4]
1 | N[C@@H](Cc1ccccc1)C(=O)O [Phe, L-Phe] | 50% | 50% | 50% | 
2 | N[C@@H](Cc1ccc(O)cc1)C(=O)O [Tyr, L-Tyr] | 40% | 47% | 40% | no inhibition
